One experiment has as its system SW48 cells. Description: Proliferation assay SW48 (CellTiterGlo, 96 hours). Particulars: Homo sapiens, SW48, read-out: Proliferation Assay SW48 (GI50).
The test system of the next experiment is DLD1-WRN-KO cells. As to the kind of experiment: Proliferation assay DLD1-WRN-KO (CellTiterGlo, 96 hours; off-target effects). The following applies: Homo sapiens, read-out: Proliferation Assay DLD1-WRN-KO (GI50).
The target in another experiment is WRN helicase (Homo sapiens (Human), UniProt Q14191). Description: In vitro enzymatic activity assay on WRN helicase (DNA dependent ATPase assay, ADP-Glo). It is filed as biochemical. Particulars: geometric means of at least 2 determinations; read-out: WRN ATPase Activity (IC50). Put shortly:
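The WRN helicase core (aa N517-P1238), 10 nM, hydrolysed 300 µM ATP in the presence of 0.2 nM FLAP26 DNA (Tris pH 7.5, 2 mM MgCl2, 50 mM NaCl) for 30 min at room temperature. ADP formed was quantified by ADP-Glo luminescence.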

Molecules are shown by their SMILES. pIC50: −log10 of the molar value. Where only a bound is given, the exact number is not on record here.

Sequence of WRN helicase (Q14191 517-1238): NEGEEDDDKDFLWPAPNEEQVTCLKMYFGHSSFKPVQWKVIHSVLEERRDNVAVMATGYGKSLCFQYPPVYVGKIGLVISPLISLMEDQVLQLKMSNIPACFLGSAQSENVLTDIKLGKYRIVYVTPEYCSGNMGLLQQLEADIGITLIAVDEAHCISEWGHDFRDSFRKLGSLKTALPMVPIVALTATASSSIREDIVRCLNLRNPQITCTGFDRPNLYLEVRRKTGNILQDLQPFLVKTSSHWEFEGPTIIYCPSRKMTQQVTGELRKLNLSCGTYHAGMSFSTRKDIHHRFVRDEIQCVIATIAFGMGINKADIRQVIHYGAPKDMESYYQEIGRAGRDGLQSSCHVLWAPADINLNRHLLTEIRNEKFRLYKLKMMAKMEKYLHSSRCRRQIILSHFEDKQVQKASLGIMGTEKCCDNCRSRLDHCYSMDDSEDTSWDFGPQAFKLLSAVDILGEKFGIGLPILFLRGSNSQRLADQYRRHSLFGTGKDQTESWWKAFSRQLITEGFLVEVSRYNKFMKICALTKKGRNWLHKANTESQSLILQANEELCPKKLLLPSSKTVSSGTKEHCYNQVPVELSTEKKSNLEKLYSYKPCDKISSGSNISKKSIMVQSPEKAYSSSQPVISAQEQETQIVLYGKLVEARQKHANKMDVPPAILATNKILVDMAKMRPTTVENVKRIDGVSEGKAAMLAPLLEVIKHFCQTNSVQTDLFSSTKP

As for `CCc1c(N2CCN(C(=O)c3ncccc3O)CC2)c(=O)n2nc(C3=CCOCC3)nc2n1CC(=O)Nc1ccc(Cl)cc1Cl` [Example 101, N-(2,4-dichlorophenyl)-2-(2-(3,6-dihydro-2H-pyran-4-yl)-5-ethyl-6-(4-(3-hydroxypicolinoyl)piperazin-1-yl)-7-oxo-[1,2,4]triazolo[1,5-a]pyrimidin-4(7H)-yl)acetamide], the GI50 in the experiment with SW48 cells was 210 nM; in the experiment on DLD1-WRN-KO cells it was > 10000 nM. Moreover, the negative logarithm of the IC50 (pIC50) on WRN helicase is 7.00.

Regarding `CCc1c(N2CCN(C(=O)c3ncccc3O)CC2)c(=O)n2nc(C3=CCOCC3)nc2n1CC(=O)Nc1cc(Cl)c(C(F)(F)F)nc1C` [Example 102, N-(5-chloro-2-methyl-6-(trifluoromethyl)pyridin-3-yl)-2-(2-(3,6-dihydro-2H-pyran-4-yl)-5-ethyl-6-(4-(3-hydroxypicolinoyl)piperazin-1-yl)-7-oxo-[1,2,4]triazolo[1,5-a]pyrimidin-4(7H)-yl)acetamide], the results for the GI50 in the experiment on SW48 cells and in the experiment on DLD1-WRN-KO cells were 170 nM and > 10000 nM, respectively. Moreover, at WRN helicase, the pIC50 is 7.05.

In the case of `CCc1c(N2CCN(C(=O)c3ncccc3O)CC2)c(=O)n2nc(C3=CCOCC3)nc2n1CC(=O)Nc1cc(C(F)(F)F)c(Cl)cc1C` [Example 103, N-(4-chloro-2-methyl-5-(trifluoromethyl)phenyl)-2-(2-(3,6-dihydro-2H-pyran-4-yl)-5-ethyl-6-(4-(3-hydroxypicolinoyl)piperazin-1-yl)-7-oxo-[1,2,4]triazolo[1,5-a]pyrimidin-4(7H)-yl)acetamide], the figures for the GI50 with SW48 cells and in the experiment with DLD1-WRN-KO cells were 250 nM and > 10000 nM, respectively. For the same molecule, at WRN helicase, the pIC50 was 7.00.

With `CCc1cc(C)c(NC(=O)Cn2c(CC)c(N3CCN(C(=O)c4ncccc4O)CC3)c(=O)n3nc(C4=CCOCC4)nc23)cc1Cl` [Example 104, N-(5-chloro-4-ethyl-2-methylphenyl)-2-(2-(3,6-dihydro-2H-pyran-4-yl)-5-ethyl-6-(4-(3-hydroxypicolinoyl)piperazin-1-yl)-7-oxo-[1,2,4]triazolo[1,5-a]pyrimidin-4(7H)-yl)acetamide], the GI50 is 50 nM in the experiment on SW48 cells and > 10000 nM in the experiment with DLD1-WRN-KO cells. Besides, on WRN helicase, the pIC50 is 7.15.

As for `Cc1cc(Cl)ccc1NC(=O)Cn1c(C)c(N2CCN(C(=O)c3ncccc3O)CC2)c(=O)n2nc(C3=CCOCC3)nc12` [Example 105, N-(4-chloro-2-methylphenyl)-2-(2-(3,6-dihydro-2H-pyran-4-yl)-6-(4-(3-hydroxypicolinoyl)piperazin-1-yl)-5-methyl-7-oxo-[1,2,4]triazolo[1,5-a]pyrimidin-4(7H)-yl)acetamide], the GI50 was 1130 nM in the experiment on SW48 cells and > 10000 nM in the experiment with DLD1-WRN-KO cells. In addition, the pIC50 at WRN helicase was 6.70.

Take `CCc1c(N2CCN(C(=O)c3ncnc(C)c3O)CC2)c(=O)n2nc(C3=CCOCC3)nc2n1CC(=O)Nc1ccc(Br)cc1Cl` [Example 106, N-(4-bromo-2-chlorophenyl)-2-(2-(3,6-dihydro-2H-pyran-4-yl)-5-ethyl-6-(4-(5-hydroxy-6-methylpyrimidine-4-carbonyl)piperazin-1-yl)-7-oxo-[1,2,4]triazolo[1,5-a]pyrimidin-4(7H)-yl)acetamide]: the values for the GI50 in the experiment on SW48 cells and in the experiment with DLD1-WRN-KO cells were 110 nM and > 10000 nM, respectively. Besides, the pIC50 at WRN helicase was 7.22.

For `CCc1c(N2CCN(C(=O)c3ncnc(C)c3O)CC2)c(=O)n2nc(C3=CCOCC3)nc2n1CC(=O)Nc1ccc(C(F)(F)F)cc1F` [Example 107, 2-(2-(3,6-dihydro-2H-pyran-4-yl)-5-ethyl-6-(4-(5-hydroxy-6-methylpyrimidine-4-carbonyl)piperazin-1-yl)-7-oxo-[1,2,4]triazolo[1,5-a]pyrimidin-4(7H)-yl)-N-(2-fluoro-4-(trifluoromethyl)phenyl)acetamide], the GI50 with SW48 cells is 100 nM; in the experiment with DLD1-WRN-KO cells, > 10000 nM. Also, the pIC50 at WRN helicase was 7.30.

For `CCc1c(N2CCN(C(=O)c3ncnc(C)c3O)CC2)c(=O)n2nc(C3=CCOCC3)nc2n1CC(=O)Nc1ccc(C(F)(F)F)cc1Br` [Example 108, N-(2-bromo-4-(trifluoromethyl)phenyl)-2-(2-(3,6-dihydro-2H-pyran-4-yl)-5-ethyl-6-(4-(5-hydroxy-6-methylpyrimidine-4-carbonyl)piperazin-1-yl)-7-oxo-[1,2,4]triazolo[1,5-a]pyrimidin-4(7H)-yl)acetamide], the GI50 with SW48 cells was 90 nM; in the experiment on DLD1-WRN-KO cells, > 10000 nM. The pIC50 at WRN helicase is 7.10.

For `CCc1c(N2CCN(C(=O)c3ncccc3O)CC2)c(=O)n2nc(C3=CNCCC3)nc2n1CC(=O)Nc1ccc(C(F)(F)F)cc1C` [Example 109, 2-(5-ethyl-6-(4-(3-hydroxypicolinoyl)piperazin-1-yl)-7-oxo-2-(1,4,5,6-tetrahydropyridin-3-yl)-[1,2,4]triazolo[1,5-a]pyrimidin-4(7H)-yl)-N-(2-methyl-4-(trifluoromethyl)phenyl)acetamide], the GI50 in the experiment on SW48 cells is 690 nM; in the experiment with DLD1-WRN-KO cells it was > 10000 nM. Further, the pIC50 on WRN helicase was 5.93.

Turning to `CCc1c(N2CCN(C(=O)c3ncccc3O)CC2)c(=O)n2nc(C3=CCCCN3)nc2n1CC(=O)Nc1ccc(C(F)(F)F)cc1C` [Example 110, 2-(5-ethyl-6-(4-(3-hydroxypicolinoyl)piperazin-1-yl)-7-oxo-2-(1,4,5,6-tetrahydropyridin-2-yl)-[1,2,4]triazolo[1,5-a]pyrimidin-4(7H)-yl)-N-(2-methyl-4-(trifluoromethyl)phenyl)acetamide], the GI50 with SW48 cells was 1210 nM; in the experiment with DLD1-WRN-KO cells it was > 10000 nM. Moreover, at WRN helicase, the pIC50 is 6.44.

For `CCc1c(N2CCN(C(=O)c3ncccc3O)CC2)c(=O)n2nc(C3=CCNCC3)nc2n1CC(=O)Nc1ccc(C(F)(F)F)cc1C` [Example 112, 2-(5-ethyl-6-(4-(3-hydroxypicolinoyl)piperazin-1-yl)-7-oxo-2-(1,2,3,6-tetrahydropyridin-4-yl)-[1,2,4]triazolo[1,5-a]pyrimidin-4(7H)-yl)-N-(2-methyl-4-(trifluoromethyl)phenyl)acetamide], the figures for the GI50 in the experiment with SW48 cells and with DLD1-WRN-KO cells were 7940 nM and > 10000 nM, respectively. Moreover, the pIC50 at WRN helicase is 6.29.

Consider `CCc1c(N2CCN(C(=O)c3ncccc3O)CC2)c(=O)n2nc(C3=COCCO3)nc2n1CC(=O)Nc1ccc(C(F)(F)F)cc1C` [Example 113, 2-(2-(5,6-dihydro-1,4-dioxin-2-yl)-5-ethyl-6-(4-(3-hydroxypicolinoyl)piperazin-1-yl)-7-oxo-[1,2,4]triazolo[1,5-a]pyrimidin-4(7H)-yl)-N-(2-methyl-4-(trifluoromethyl)phenyl)acetamide], for which the GI50 was 120 nM in the experiment on SW48 cells and > 10000 nM in the experiment on DLD1-WRN-KO cells. At WRN helicase, the pIC50 was 7.40.

With `CCc1c(N2CCN(C(=O)c3ncccc3O)CC2)c(=O)n2nc(C3=CCCOC3)nc2n1CC(=O)Nc1ccc(C(F)(F)F)cc1C` [Example 114, 2-(2-(5,6-dihydro-2H-pyran-3-yl)-5-ethyl-6-(4-(3-hydroxypicolinoyl)piperazin-1-yl)-7-oxo-[1,2,4]triazolo[1,5-a]pyrimidin-4(7H)-yl)-N-(2-methyl-4-(trifluoromethyl)phenyl)acetamide], the GI50 in the experiment on SW48 cells was 180 nM; in the experiment with DLD1-WRN-KO cells, > 10000 nM. Besides, the pIC50 on WRN helicase was 7.05.

Regarding `CCc1c(N2CCN(C(=O)c3ncccc3O)CC2)c(=O)n2nc(C3=CCN(CC(F)F)CC3)nc2n1CC(=O)Nc1ccc(C(F)(F)F)cc1C` [Example 115, 2-(2-(1-(2,2-difluoroethyl)-1,2,3,6-tetrahydropyridin-4-yl)-5-ethyl-6-(4-(3-hydroxypicolinoyl)piperazin-1-yl)-7-oxo-[1,2,4]triazolo[1,5-a]pyrimidin-4(7H)-yl)-N-(2-methyl-4-(trifluoromethyl)phenyl)acetamide], the GI50 with SW48 cells is 200 nM; in the experiment with DLD1-WRN-KO cells, > 10000 nM. Also, on WRN helicase, the pIC50 is 6.77.

For `CCc1c(N2CCN(C(=O)c3ncccc3O)CC2)c(=O)n2nc(C3=CCOCC3)nc2n1CC(=O)Nc1cc(F)c(C(F)(F)F)cc1Cl` [Example 116, N-(2-chloro-5-fluoro-4-(trifluoromethyl)phenyl)-2-(2-(3,6-dihydro-2H-pyran-4-yl)-5-ethyl-6-(4-(3-hydroxypicolinoyl)piperazin-1-yl)-7-oxo-[1,2,4]triazolo[1,5-a]pyrimidin-4(7H)-yl)acetamide], the GI50 with SW48 cells was determined as 80 nM; in the experiment with DLD1-WRN-KO cells it was 6600 nM. Further, on WRN helicase, the pIC50 is 7.22.

Take `Cc1c(N2CCN(C(=O)c3ncccc3O)CC2)c(=O)n2nc(C3=CCOCC3)nc2n1CC(=O)Nc1ccc(C(F)(F)F)cc1` [Example 117, 2-(2-(3,6-dihydro-2H-pyran-4-yl)-6-(4-(3-hydroxypicolinoyl)piperazin-1-yl)-5-methyl-7-oxo-[1,2,4]triazolo[1,5-a]pyrimidin-4(7H)-yl)-N-(4-(trifluoromethyl)phenyl)acetamide]: the values for the GI50 in the experiment on SW48 cells and with DLD1-WRN-KO cells were 260 nM and > 10000 nM, respectively. Besides, the pIC50 on WRN helicase was 7.40.

As for `CCc1c(N2C[C@@H](C)N(C(=O)c3ncnc(C)c3O)C[C@@H]2C)c(=O)n2nc(C3=CCOCC3)nc2n1CC(=O)Nc1ccc(C(F)(F)F)cc1Cl` [Example 118, N-(2-chloro-4-(trifluoromethyl)phenyl)-2-(2-(3,6-dihydro-2H-pyran-4-yl)-5-ethyl-6-((2S,5R)-4-(5-hydroxy-6-methylpyrimidine-4-carbonyl)-2,5-dimethylpiperazin-1-yl)-7-oxo-[1,2,4]triazolo[1,5-a]pyrimidin-4(7H)-yl)acetamide], the figures for the GI50 with SW48 cells and in the experiment with DLD1-WRN-KO cells were 450 nM and > 10000 nM, respectively. The pIC50 on WRN helicase is 7.05.

Values taken from patent US11878973B2, “Bicyclic compounds and their uses” (NOVARTIS AG, priority 2021, dated 2024).
